From patent US8957033B2, “Inhibitor of sodium-dependent glucose transport protein and preparation method therefor and use thereof” (Beijing Prelude Pharm. SCI. & Tech. Co., Ltd., priority 2011, dated 2015)
Like-named read-outs stand apart in the source and are kept apart here.

Assays:
male SD rats [1] = assay: Oral glucose tolerance test, glucose 8 hours after administration (Example 6), blood glucose; format: in vivo; settings: for Blood glucose / ΔAUC: 10 mg/kg orally, Mean ± SD; for Effect on blood glucose level (in words): glucose at 8 hours after administration, compared with the blank control group
Protocol: (§1) Preparation of the administrated drugs, and grouping and administration of the animals were the same as those in Example 5.
(§2) Before the test, the rats were fasted for 16 hours and then administrated orally with the blank solution or compounds. The blood glucose baseline level was measured at 8 hours after administration, then the rats in each group were administrated orally with 50% glucose aqueous solution in an amount of 2 g/kg. The blood samples (1 drop) were taken from tail veins of rats in each group at 15 minutes, 30 minutes, 1 hour and 2 hours after oral administration of glucose, and the blood glucose level was measured by using Accu-Chek Aviva system.
(§3) Statistical analysis was conducted and the significance level was set to be P<0.05. The mean and standard deviation were calculated for all measurement parameters which were designed for study. One-way analysis of variance (ANOVA) was performed by software GraphPad Prism 5.0 after multiple comparisons among groups.

male SD rats [2] = assay: Oral glucose tolerance test, glucose 15 minutes after administration (Example 5); format: in vivo; settings: 10 mg/kg orally; for Blood glucose / ΔAUC: Mean ± SD; for Effect on blood glucose level (in words): compared with the blank control group
Protocol: Compound 1, compound 2 and compound 3 were respectively dissolved in blank solutions (5% 1-methyl-2-pyrrolidinone, 20% PEG-400 and 20 mM sodium diphosphate) in the concentration of 10 g/L.
(§4) Experimental animals are male SD rats of 6-8 weeks old, with weight of 190-215 g, which were purchased from Beijing Vital River Laboratory Animal Technology Co., Ltd. The SD rats were randomly divided into four groups based on body weight, each group containing three rats. Wherein group 1 is the blank control group in which the rats were administrated with the above blank solution.
as §2, with “15 minutes” for “8 hours”
as §3

[3] = Stability test in vitro, male rat liver microsomes with NADPH; settings: 2 μM, NADPH 1 mM, 37° C.
Protocol: (§5) 1) Master solution was prepared according to Table 1, and then the test compounds and control compound were added into the master solution, with the final concentration of these compounds in the reaction system being 2 μM. Then the mixed solution was preheated at 37° C. for 2 minutes.
(§6) 2) NADPH was added into the mixed solution with the final concentration of NADPH being 1 mM, and then the reaction system was incubated at 37° C. The blank control was also added with the same volume of ultrapure water instead of NADPH.
(§7) 3) 50 μL aliquots were taken out from the reaction system at 0, 15, 30, 45 and 60 minutes, and added with 3 volumes of cold methanol to terminate the reaction. The aliquot was centrifugated for 10 minutes under 16000 g to precipitate proteins. 100 μL of supernatant was used for LC/MS/MS analysis, to determine the amounts of the remaining test compounds and the control compound. The aliquots were detected in duplicate.
(§8) The instruments and conditions for LC analysis were as follows:
(§9) Shimadzu (Degasser DGU—20A3, Solvent Delivery Unit LC—20ADXR, System Controller CBM—20A, Column Oven CTO—10ASVP), CTC Analytics HTC PAL—XT System
(§10) Column: Phenomenex 5μ C 18 (2) (2.0×50 mm)
(§11) The instrument and conditions for MS/MS analysis were as follows: • AB API4000 LC/MS/MS instrument • Source: Turbo spray • Ionization mode: ESI • Type of scan: MRM • Collision gas: 6 L/min; curtain gas: 30 L/min; atomized gas: 50 L/min; auxiliary gas: 50 L/min; temperature: 500° C.; spray voltage: 4500 v.

[4] = Stability test in vitro, human liver microsomes with NADPH; settings: 2 μM, NADPH 1 mM, 37° C.
Protocol: as §5, §6, §7, §8, §9, §10, §11

[5] = Pharmacokinetic test in vivo in SD rats; set-up: species or system male SD rats; settings: 10 mg/kg; for AUC(0-inf) / AUC(0-t) / C0 / MRT / half-life / Tmax / bioavailability: male, rat, plasma; for bioavailability: read-out: F (oral bioavailability)
Protocol: Compound 1, compound 2 and compound 3 were respectively dissolved in blank solution (5% 1-methyl-2-pyrrolidinone, 20% PEG-400 and 20 mM sodium diphosphate) in a concentration of 10 g/L.
as §4, with “into seven” for “into four”, “the blank solution was” for “the rats were”, “administrated intravenously.” for “administrated with the above blank solution.”
Before the pharmacokinetic test, the SD rats were fasted for 16 hours, and then administrated intravenously (1 mL/kg; 10 mg/kg) or orally (1 mL/kg; 10 mg/kg) with single dose of the compound or blank solution according to Table 4. After administration 200 uL blood samples were collected regularly through jugular vein puncture, wherein for the group of animals administered intravenously, blood samples were collected at 0 minute, 15 minutes, 30 minutes, 1 hour, 2 hours, 4 hours, 8 hours and 24 hours after administration; for the group of animals administered orally, blood samples were collected at 0 minute, 15 minutes, 30 minutes, 45 minutes, 75 minutes, 135 minutes, 4 hours, 8 hours and 24 hours after administration. The blood samples were collected in a sample tube with EDTA, and immediately centrifuged under 4000 rpm for 0.5 minutes at 4° C., and then the plasma was transferred to another sample tube and stored at −20° C.
The method and instruments for pharmacokinetics test of samples were as follows: • HPLC: Shimadzu (DGV-20A3, Serial NO: SSI-3-0536; LC-20AD Serial NO: • L20104551674 USB and L20104551673 USB), CTC Analytics HTC PAL System (Serial NO: 4353); • MS: AB API4000 Q Trap LC/MS/MS instrument (Serial NO. AR19020706) • Column: Phenomenex Luna 5μ C18 (2.0×50 mm) • Mobile phase: 100% acetonitrile (2 mM ammonium acetate) and 100% water (2 mM ammonium acetate) • Quantitative Method: internal standard method

male SD rats [6] = assay: Urine glucose at end of glucose tolerance test (Example 6); format: in vivo; settings: for Urine glucose: 10 mg/kg orally, urine collected at end of glucose tolerance test, Mean ± SD
Protocol: as §1, §2
At the end of the test, urine of the rats in each group was collected, and then the urine glucose level was analyzed by using TOSHIBA TBA-40FR automatic biochemical analyzer.
as §3

[7] = male, 2 μM
Protocol: as §5, §6, §7, §8, §9, §10, §11

[8] = 2 μM
Protocol: as §5, §6, §7, §8, §9, §10, §11

[9] = glucose 2 g/kg 8 hours after administration, 15 minutes after glucose
[10] = glucose 2 g/kg 8 hours after administration, 30 minutes after glucose
[11] = glucose 2 g/kg 8 hours after administration, 1 hour after glucose
[12] = glucose 2 g/kg 8 hours after administration, 2 hours after glucose
[13] = glucose 2 g/kg 8 hours after administration
[14] = time 0 (baseline 8 hours after administration, before glucose 2 g/kg)
[15] = glucose 2 g/kg 15 minutes after administration, 15 minutes after glucose
[16] = glucose 2 g/kg 15 minutes after administration, 30 minutes after glucose
[17] = glucose 2 g/kg 15 minutes after administration, 1 hour after glucose
[18] = glucose 2 g/kg 15 minutes after administration, 2 hours after glucose
[19] = glucose 2 g/kg 15 minutes after administration
[20] = time 0 (baseline 15 minutes after administration, before glucose 2 g/kg)
[21] = iv, administrated intravenously

CI_obs ([5]; administrated intravenously) [mL/min/kg]	Vss_obs ([5]; administrated intravenously) [L/kg]	AUC(0-inf) [5, 21] [ng·h/mL]	AUC(0-t) [5, 21] [ng·h/mL]	C0 [5, 21] [ng/mL]	MRT [5, 21] [h]	half-life [5, 21] [h]	AUC(0-inf) ([5]; po, administrated orally) [ng·h/mL]	Structure (SMILES)	Blood glucose (male SD rats [1]; [9]) [mg/dL]	Blood glucose (male SD rats [1]; [10]) [mg/dL]	Blood glucose (male SD rats [1]; [11]) [mg/dL]	Blood glucose (male SD rats [1]; [12]) [mg/dL]	ΔAUC (male SD rats [1]; [13]) [mg·h/dL]	Blood glucose (male SD rats [1]; [14]) [mg/dL]	Blood glucose (male SD rats [2]; [15]) [mg/dL]	Blood glucose (male SD rats [2]; [16]) [mg/dL]	Blood glucose (male SD rats [2]; [17]) [mg/dL]	Blood glucose (male SD rats [2]; [18]) [mg/dL]	ΔAUC (male SD rats [2]; [19]) [mg·h/dL]	Blood glucose (male SD rats [2]; [20]) [mg/dL]	also measured
1.59	1.18	107000	87800	11300	7.35	9.8	193000	OC[C@H]1O[C@@H](c2ccc(Cl)c(Cc3ccc(OCC(F)(F)F)cc3)c2)[C@H](O)[C@@H](O)[C@@H]1O [Compound 2]	103.20 ± 12.64	154.20 ± 2.75	141.00 ± 2.08	85.20 ± 1.04	115.00 ± 3.55	62.40 ± 2.75	126.6 ± 26.11	143.4 ± 24.44	138.6 ± 17.17	97.2 ± 13.59	77.2 ± 20.44	85.8 ± 2.75	Effect on blood glucose level (in words) (male SD rats [1]): effect of lowering blood glucose level; Effect on blood glucose level (in words) (male SD rats [2]): effect of lowering blood glucose level; Residual percentage of compounds in rat liver microsome ([3]; sampling time 0 minute): 100.00%; Residual percentage of compounds in rat liver microsome ([3]; sampling time 15 minutes): 88.20%; Residual percentage of compounds in rat liver microsome ([3]; sampling time 30 minutes): 94.51%; Residual percentage of compounds in rat liver microsome ([3]; sampling time 45 minutes): 91.65%; Residual percentage of compounds in rat liver microsome ([3]; sampling time 60 minutes): 88.27%; Residual percentage of compounds in human liver microsome ([4]; sampling time 0 minute): 100.00%; Residual percentage of compounds in human liver microsome ([4]; sampling time 15 minutes): 80.84%; Residual percentage of compounds in human liver microsome ([4]; sampling time 30 minutes): 78.78%; Residual percentage of compounds in human liver microsome ([4]; sampling time 45 minutes): 76.73%; Residual percentage of compounds in human liver microsome ([4]; sampling time 60 minutes): 75.34%; AUC(0-t) ([5]; po, administrated orally): 77300 ng·h/mL; C0 ([5]; po, administrated orally): 5090 ng/mL; Tmax ([5]; po, administrated orally): 1.25 h; half-life ([5]; po, administrated orally): 30 h; bioavailability ([5]; po, administrated orally): 88%; Urine glucose (male SD rats [6]): 197.90 ± 56.27 mmol/L; Urine glucose level (in words) (male SD rats [6]; compared to the blank control group, oral administration): significantly increased
0.75	1.56	260000	113000	6640	10.1	28.3	44700	OC[C@H]1O[C@@H](c2ccc(Cl)c(C(F)(F)c3ccc(OCC(F)(F)F)cc3)c2)[C@H](O)[C@@H](O)[C@@H]1O [Compound 3]	148.80 ± 9.06	198.60 ± 8.51	183.00 ± 12.25	128.40 ± 3.75	144.40 ± 18.72	90.00 ± 1.80	143.4 ± 18.91	172.8 ± 25.01	148.2 ± 11.98	88.8 ± 17.11	87.6 ± 15.90	90.0 ± 13.59	Effect on blood glucose level (in words) (male SD rats [1]): effect of lowering blood glucose level; Effect on blood glucose level (in words) (male SD rats [2]): effect of lowering blood glucose level; Residual percentage of compounds in rat liver microsome ([3]; sampling time 0 minute): 100.00%; Residual percentage of compounds in rat liver microsome ([3]; sampling time 15 minutes): 99.00%; Residual percentage of compounds in rat liver microsome ([3]; sampling time 30 minutes): 92.49%; Residual percentage of compounds in rat liver microsome ([3]; sampling time 45 minutes): 97.25%; Residual percentage of compounds in rat liver microsome ([3]; sampling time 60 minutes): 108.11%; Residual percentage of compounds in human liver microsome ([4]; sampling time 0 minute): 100.00%; Residual percentage of compounds in human liver microsome ([4]; sampling time 15 minutes): 105.74%; Residual percentage of compounds in human liver microsome ([4]; sampling time 30 minutes): 98.43%; Residual percentage of compounds in human liver microsome ([4]; sampling time 45 minutes): 101.18%; Residual percentage of compounds in human liver microsome ([4]; sampling time 60 minutes): 97.89%; AUC(0-t) ([5]; po, administrated orally): 20800 ng·h/mL; C0 ([5]; po, administrated orally): 1400 ng/mL; Tmax ([5]; po, administrated orally): 8 h; half-life ([5]; po, administrated orally): 20.4 h; bioavailability ([5]; po, administrated orally): 17.2%; Urine glucose (male SD rats [6]): 0.10 ± 0.17 mmol/L
2.99	0.903	56500	55800	11000	4.76	3.95	39100	CCOc1ccc(Cc2cc([C@@H]3O[C@H](CO)[C@@H](O)[C@H](O)[C@H]3O)ccc2Cl)cc1 [Compound 1, Dapagliflozin, reference compound]	96.60 ± 21.70	131.40 ± 8.25	123.60 ± 4.53	72.60 ± 6.81	107.90 ± 8.53	50.40 ± 9.52	97.2 ± 17.36	102.6 ± 20.44	94.8 ± 17.11	72.0 ± 10.95	20.2 ± 19.32	85.2 ± 4.53	Residual percentage of compounds in rat liver microsome ([7]; 0 min): 100.00%; Residual percentage of compounds in rat liver microsome ([7]; 15 min): 88.37%; Residual percentage of compounds in rat liver microsome ([7]; 30 min): 90.68%; Residual percentage of compounds in rat liver microsome ([7]; 45 min): 83.66%; Residual percentage of compounds in human liver microsome ([8]; 0 min): 100.00%; Residual percentage of compounds in human liver microsome ([8]; 15 min): 100.36%; Residual percentage of compounds in human liver microsome ([8]; 30 min): 102.10%; Residual percentage of compounds in human liver microsome ([8]; 45 min): 101.77%; AUC(0-t) ([5]; po, administrated orally): 41400 ng·h/mL; C0 ([5]; po, administrated orally): 3880 ng/mL; Tmax ([5]; po, administrated orally): 1.25 h; half-life ([5]; po, administrated orally): 4.14 h; bioavailability ([5]; po, administrated orally): 69.1%; Urine glucose (male SD rats [6]): 294.90 ± 12.29 mmol/L
